Consider one compound from ChEMBL document CHEMBL1126490, “An unusual oxetane nucleoside as a potent antiviral agent” (1993).

Values joined by “and” are separate entries in the source; they are usually repeats but may differ in a detail not shown here. Equal entries are not always repeated.

What all share (assay type): functional
For experiment [1], the species on record is Mus musculus. Put plainly: Mean survival time of mice against Japanese encephalitis virus was determined.
The species named for experiment [2] is Mus musculus. The experiment is described as follows: Mean survival time of mice against forest virus was determined.
Experiment [3] deals with Mus musculus. The experiment is described as follows: Percent survival of mice against Japanese encephalitis virus after 10 mg/Kg peroral administration of compound. As to conditions: po.
For experiment [4], the system named is Mus musculus. Put plainly: Percent survival of mice against Japanese encephalitis virus after 5 mg/Kg peroral administration of the compound. As to conditions: po.
Experiment [5] has as its system Mus musculus. The experiment is described as follows: Percent survival of mice against forest virus after 10 mg/Kg peroral administration of compound. As to conditions: po.
Experiment [6] concerns Mus musculus. Put plainly: Percent survival of mice against forest virus after 5 mg/Kg peroral administration of compound. As to conditions: po.

`Nc1ncnc2c1ncn2C1OC2COC2C1O` (stereo unspecified): the MST in the experiment filed under Mus musculus [1] was 10.7 days and 15.5 days; in the experiment filed under Mus musculus [2], 11.6 days and 11.8 days. Moreover, the results for the survival at 10 mg/kg in the experiment on Mus musculus [3] and in the experiment with Mus musculus [5] were 67% and 50%, respectively. Also, the survival at 5 mg/kg in the experiment on Mus musculus [4] and with Mus musculus [6] was 37% in each case.
